Reference: article PMC10388311, “Innovative Strategy toward Mutant CFTR Rescue in Cystic Fibrosis: Design and Synthesis of Thiadiazole Inhibitors of the E3 Ligase RNF5” (Journal of Medicinal Chemistry, 2023)

Target: F508del-CFTR in CFBE41o– cells (Homo sapiens, UniProt Q99942)
Test: CFTR immunoprecipitation and Western blot (CFTR expression and ubiquitylation)
Assay type: cell-based
Conditions: 24 h, 16 5 μM, VX-661 + VX-445 10 μM + 3 μM
Method: Finally, we evaluated ubiquitylation of mutant CFTR in CFBE41o^– cells following 24 h treatment with DMSO (vehicle), analogue 16, VX-661 + VX-445, and their combination. Subsequently, cells were treated for 4 h with DMSO alone or with MG-132 (10 μM; to block proteasomal degradation) and then lysed. Cell lysates were immunoprecipitated using an anti-CFTR antibody and then subjected to SDS-PAGE followed by Western blotting to evaluate CFTR expression and ubiquitylation status (Figure 9C–F). […] In brief, cells were lysed and, after centrifugation, the protein concentration in the supernatant was calculated using the BCA assay (Euroclone, Pero (MI), Italy) following supplier’s instructions An aliquot of supernatant corresponding to 600 μg of protein was incubated for 1 h with 2 μg/sample of rabbit polyclonal anti-CFTR antibody (Alomone Labs, Jerusalem, Israel), with rocking at room temperature (RT). […] Equal amounts of IP products were analyzed by Western blotting (20 μL). […] In brief, equal amounts of lysates (25 μg) or IP products (20 μL) were separated onto gradient 4–15% Criterion TGX Precast gels (Bio-rad laboratories Inc.), transferred to a nitrocellulose membrane with a Trans-Blot Turbo system (Bio-rad Laboratories Inc.), and analyzed by Western blotting. […]

F508del-CFTR in CFBE41o– cells, sequence (Q99942 2-180): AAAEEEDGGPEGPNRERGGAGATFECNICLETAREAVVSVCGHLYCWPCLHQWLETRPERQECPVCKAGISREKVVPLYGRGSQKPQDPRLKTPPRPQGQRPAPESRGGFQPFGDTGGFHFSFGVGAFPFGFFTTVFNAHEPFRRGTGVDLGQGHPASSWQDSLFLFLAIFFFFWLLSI
F508del-CFTR in CFBE41o– cells, sequence (P13569 with tags, fused parts or gaps DEL508-508 partner): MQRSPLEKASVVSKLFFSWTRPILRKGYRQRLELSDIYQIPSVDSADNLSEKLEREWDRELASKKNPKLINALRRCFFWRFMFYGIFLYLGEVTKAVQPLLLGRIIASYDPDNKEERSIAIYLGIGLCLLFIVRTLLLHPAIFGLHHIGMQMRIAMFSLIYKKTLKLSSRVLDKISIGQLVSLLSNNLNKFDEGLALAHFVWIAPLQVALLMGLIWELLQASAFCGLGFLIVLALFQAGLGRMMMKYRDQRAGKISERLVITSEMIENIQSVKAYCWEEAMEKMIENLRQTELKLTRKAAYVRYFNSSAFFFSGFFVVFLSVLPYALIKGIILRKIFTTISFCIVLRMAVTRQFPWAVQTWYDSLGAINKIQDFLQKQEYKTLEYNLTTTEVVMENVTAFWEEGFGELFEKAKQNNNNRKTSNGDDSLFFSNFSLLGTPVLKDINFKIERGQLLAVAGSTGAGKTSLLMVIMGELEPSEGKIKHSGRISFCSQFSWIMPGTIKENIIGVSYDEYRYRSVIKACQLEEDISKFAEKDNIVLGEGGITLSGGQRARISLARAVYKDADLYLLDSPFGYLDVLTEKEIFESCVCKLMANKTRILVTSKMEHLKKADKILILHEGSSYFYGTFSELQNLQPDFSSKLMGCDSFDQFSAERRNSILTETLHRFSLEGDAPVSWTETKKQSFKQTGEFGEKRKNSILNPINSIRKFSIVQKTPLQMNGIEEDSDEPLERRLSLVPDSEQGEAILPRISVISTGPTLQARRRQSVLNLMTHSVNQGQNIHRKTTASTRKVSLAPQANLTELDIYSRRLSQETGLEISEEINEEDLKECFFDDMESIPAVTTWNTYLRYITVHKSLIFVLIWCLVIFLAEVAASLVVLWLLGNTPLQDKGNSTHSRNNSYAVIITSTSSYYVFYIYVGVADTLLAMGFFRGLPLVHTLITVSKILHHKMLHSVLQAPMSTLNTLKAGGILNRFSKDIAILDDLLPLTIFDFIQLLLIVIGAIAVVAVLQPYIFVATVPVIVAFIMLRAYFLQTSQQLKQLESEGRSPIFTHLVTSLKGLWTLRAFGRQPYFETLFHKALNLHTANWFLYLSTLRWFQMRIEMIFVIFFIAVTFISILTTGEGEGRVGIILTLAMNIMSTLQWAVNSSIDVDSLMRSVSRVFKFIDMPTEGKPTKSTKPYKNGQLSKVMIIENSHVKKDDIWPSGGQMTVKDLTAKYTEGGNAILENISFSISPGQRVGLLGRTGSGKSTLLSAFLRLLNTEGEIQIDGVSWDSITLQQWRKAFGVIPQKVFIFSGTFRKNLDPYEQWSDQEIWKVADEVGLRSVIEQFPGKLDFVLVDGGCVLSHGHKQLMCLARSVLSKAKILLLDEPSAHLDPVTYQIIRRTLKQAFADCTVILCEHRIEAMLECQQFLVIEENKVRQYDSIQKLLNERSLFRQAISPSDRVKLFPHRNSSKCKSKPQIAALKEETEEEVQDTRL

COc1cccc(Cn2c(C)ns/c2=N\C(=N\c2ccccc2)c2ccccc2)c1 [Compound 16, (E)-N-((Z)-4-(3-Methoxybenzyl)-3-methyl-1,2,4-thiadiazol-5(4H)-ylidene)-N′-phenylbenzimidamide]
rescue of mutant CFTR (mature form, band C): very modest
